Experimental data taken from US20230241257A1, “BIOTIN-MODIFIED DIMER AND USE THEREOF” (THE UNIVERSITY OF TOKYO, priority 2020, published 2023).

Assays:
[1] = tested on: human stomach cancer cells (MKN-45); experiment: Experiment 5: pharmacokinetics of Cupid-scFv antibody (24 h before)+^211At-psyche-BR in MKN-45 cancer-bearing mouse models; format: in vivo, mice (BALB/cSlc nu/nu)
Experimental: The present experiment used human stomach cancer cells (MKN-45) expressing carcinoembryonic antigen (CEA). 9-week-old male immunodeficient mice (BALB/cSlc nu/nu) were used. MKN-45 cells (1×10^7/0.1 ml) were transplanted into the mice's subcutis on the right shoulder dorsal side to produce cancer-bearing mouse models. The mice were divided into four groups when the tumor volume became a predetermined size (on Day 13 after the transplantation). The Cupid-scFv antibody was administered in 100 μmol/0.1 ml via the caudal vein of each mouse. Twenty-four hours after administration of the Cupid-scFv antibody, ^211At-psyche-BR (about 0.25 MBq/100 ml) was administered via the caudal vein of each mouse. One minute, 1 hour, 6 hours, and 24 hours after administration of the ^211At-psyche-BR, the mice were euthanized by collecting whole blood from the heart of each mouse under isoflurane anesthesia, and tumor tissues and normal tissues/organs were then excised. Normal tissues/organs: skin (lower right limb), muscle (right gastrocnemius muscle), heart, lung, spleen, pancreas, white fat (upper portion of right side testis), testis (both sides), stomach, stomach contents, small intestine (including contents), large intestine (including contents), liver, brown fat (interscapular), submandibular gland, thyroid gland (together with trachea), bone (right femur), cerebrum, eyeballs (both sides), bladder, and urine; the remaining residues were divided into three equal parts, and the three equal parts were defined to be residue-1, residue-2, and residue-3. After that, the weights of blood, plasma, urine, tumor, and normal tissues/organs were measured, and the radioactivity thereof was then measured using a γ counter. The amounts of the ^211At-psyche-BR (radioactivity) accumulated in the blood, plasma, urine, tumor, and normal tissues/organs were calculated. That is to say, the rates (% ID/g) of the ^211At-psyche-BR accumulated per unit weight (g) of the blood, plasma, urine, tumor, and normal tissues/organs, in the administered ^211At-psyche-BR were shown. Regarding accumulation of the ^211At-psyche-BR in the thyroid gland, since the weight of the thyroid gland could not be precisely measured, it was shown that the rate (% ID) of the ^211At-psyche-BR accumulated in the thyroid gland in the administered ^211At-psyche-BR.

[2] = tested on: human stomach cancer cells (MKN-45); experiment: Experiment 7: pharmacokinetics of ^211At-psyche-BR in the absence of Cupid-scFv antibody in MKN-45 cancer-bearing mouse models; format: in vivo, mice (BALB/cSlc nu/nu); settings: no Cupid-scFv antibody
Experimental: The present experiment used human stomach cancer cells (MKN-45) expressing carcinoembryonic antigen (CEA). 9-week-old male immunodeficient mice (BALB/cSlc nu/nu) were used. MKN-45 cells (1×10^7/0.1 ml) were transplanted into the mice's subcutis on the right shoulder dorsal side to produce cancer-bearing mouse models. The mice were divided into four groups at the time the tumor volume became a predetermined size (on Day 19 after the transplantation), and ^211At-psyche-BR was administered via the caudal vein of each mouse. One minute, 1 hour, 6 hours, and 24 hours after administration of the ^211At-psyche-BR, the mice were euthanized by collecting whole blood from the heart of each mouse under isoflurane anesthesia, and tumor tissues and normal tissues/organs were then excised. Normal tissues/organs: muscle (right gastrocnemius muscle), heart, lung, spleen, pancreas, testis (both sides), stomach, stomach contents, small intestine (not including contents), large intestine (not including contents), liver, kidney, submandibular gland, thyroid gland (together with trachea), bone (right femur), and cerebrum. After that, the weights of blood, plasma, tumor, and normal tissues/organs were measured, and the radioactivity thereof was then measured using a γ counter. The amounts of the ^211At-psyche-BR (radioactivity) accumulated in the blood, plasma, urine, tumor, and normal tissues/organs were calculated. That is to say, the rates (% ID/g) of the ^211At-psyche-BR accumulated per unit weight (g) of the blood, plasma, urine, tumor, and normal tissues/organs, in the administered ^211At-psyche-BR were shown. Regarding accumulation of the ^211At-psyche-BR in the thyroid gland, since the weight of the thyroid gland could not be precisely measured, it was shown that the rate (% ID) of the ^211At-psyche-BR accumulated in the thyroid gland in the administered ^211At-psyche-BR.

Compound: N=C1N[C@H]2[C@H](CS[C@H]2CCCCNC(=O)CCCCCC(=O)Nc2cc(NC(=O)CCCCCC(=O)NCCCC[C@@H]3SC[C@@H]4NC(=N)N[C@@H]43)cc(C(=O)NCCOCCOCCNC(=O)c3cccc([211At])c3)c2)N1 [^211At-psyche-BR]
- Accumulation in the kidney ([1]; after 1 minute): 28.6±1.3 % ID/g
- Accumulation in the liver ([1]; after 1 minute): 13.3±2.2 % ID/g
- Accumulation in the lung ([1]; after 1 minute): 14.4±1.6 % ID/g
- Accumulation in the spleen ([1]; after 1 minute): 4.7±0.4 % ID/g
- Accumulation in the tumor ([1]; after 1 minute): 0.6±0.1 % ID/g
- Clearance from the blood ([1]; after 1 minute): 46.9±1.1 % ID/g
- tumor-to-blood ratio ([1]; after 1 minute): 0.01±0.00
- tumor-to-muscle ratio ([1]; after 1 minute): 1.22±0.05
- Accumulation in the kidney ([1]; after 1 hour): 17.1±1.4 % ID/g
- Accumulation in the liver ([1]; after 1 hour): 11.4±0.7 % ID/g
- Accumulation in the lung ([1]; after 1 hour): 13.2±2.2 % ID/g
- Accumulation in the spleen ([1]; after 1 hour): 7.1±0.2 % ID/g
- Accumulation in the tumor ([1]; after 1 hour): 3.1±0.7 % ID/g
- Clearance from the blood ([1]; after 1 hour): 39.5±5.2 % ID/g
- tumor-to-blood ratio ([1]; after 1 hour): 0.08±0.02
- tumor-to-muscle ratio ([1]; after 1 hour): 5.11±1.81
- Accumulation in the kidney ([1]; after 6 hours): 9.5±0.2 % ID/g
- Accumulation in the liver ([1]; after 6 hours): 12.8±0.2 % ID/g
- Accumulation in the lung ([1]; after 6 hours): 9.1±1.0 % ID/g
- Accumulation in the spleen ([1]; after 6 hours): 8.4±1.0 % ID/g
- Accumulation in the tumor ([1]; after 6 hours): 9.3±0.6 % ID/g
- Clearance from the blood ([1]; after 6 hours): 25.3±1.0 % ID/g
- tumor-to-blood ratio ([1]; after 6 hours): 0.7±0.02
- tumor-to-muscle ratio ([1]; after 6 hours): 12.80±1.86
- Accumulation in the thyroid gland ([1]; after 24 h): 0.15±0.05 % ID
- Accumulation in the kidney ([1]; after 24 hours): 5.4±0.5%
- Accumulation in the liver ([1]; after 24 hours): 7.8±0.9%
- Accumulation in the lung ([1]; after 24 hours): 5.3±0.1%
- Accumulation in the spleen ([1]; after 24 hours): 5.5±1.1%
- Accumulation in the tumor ([1]; after 24 hours): 18.4±2.5%
- Clearance from the blood ([1]; after 24 hours): 8.3±0.5 % ID/g
- amount administered excreted (blood) ([1]; after 24 hours): about 92%
- tumor-to-blood ratio ([1]; after 24 hours): 2.23±0.41
- tumor-to-muscle ratio ([1]; after 24 hours): 25.07±3.68

Compound: N=C1N[C@H]2[C@H](CS[C@H]2CCCCC(=O)NCCCCCC(=O)Nc2cc(NC(=O)CCCCCNC(=O)CCCC[C@@H]3SC[C@@H]4NC(=N)N[C@@H]43)cc(C(=O)NCCOCCOCCNC(=O)c3cccc([211At])c3)c2)N1 [^211At-psyche-B]
- Accumulation in the blood ([2]; after 1 minute): 13.5±1.1 % ID/g
- Accumulation in the kidney ([2]; after 1 minute): 72.7±5.6 % ID/g
- Accumulation in the liver ([2]; after 1 minute): 51.1±5.9 % ID/g
- Accumulation in the tumor ([2]; after 1 minute): 0.3±0.04 % ID/g
- Accumulation in the blood ([2]; after 1 hour): 2.1±0.2 % ID/g
- Accumulation in the kidney ([2]; after 1 hour): 77.9±2.1 % ID/g
- Accumulation in the liver ([2]; after 1 hour): 30.8±3.3 % ID/g
- Accumulation in the tumor ([2]; after 1 hour): 0.4±0.02 % ID/g
- Accumulation in the blood ([2]; after 6 hours): 1.0±0.2 % ID/g
- Accumulation in the kidney ([2]; after 6 hours): 32.1±8.2 % ID/g
- Accumulation in the liver ([2]; after 6 hours): 19.6±0.5 % ID/g
- Accumulation in the tumor ([2]; after 6 hours): 0.8±0.09 % ID/g
- Accumulation in the thyroid gland ([2]; after 6 hours of administration): 0.29±0.05 % ID
- Accumulation in the blood ([2]; after 24 hours): 0.2±0.04 % ID/g
- Accumulation in the kidney ([2]; after 24 hours): 3.0±0.1%
- Accumulation in the liver ([2]; after 24 hours): 5.0±0.2%
- Accumulation in the tumor ([2]; after 24 hours): 0.4±0.02%
